These results are taken from patent US20190292189A1, “LIM KINASE INHIBITORS” (VIRONGY, LLC, priority 2016, published 2019).

For experiment [1], the system named is PC-3 cells. Nature of the experiment: In vitro migration (wound closure) assay in PC-3 cells. Type of experiment: cell-based. Conditions: Homo sapiens, PC-3, 24 hours, compared to the control, read-out: inhibition of migration of PC-3 cells. Here is the method: PC3 cells were cultured to confluence at >90% in 6 well culture dishes in 10% FBS RPMI1640 media the day before the assay. Lines were drawn with a marker on the bottom of the dishes. Using a sterile 1 mL pipet tip, the dishes were scratched three separate wounds through the cells moving perpendicular to the line drawn in the step above. The cells were rinsed with PBS twice very gently and added the RPMI1640 media, and the dishes were taken pictures using phase contrast under Leica DMI3000B microscope.

Another experiment deals with ROCK-II (Homo sapiens, UniProt O75116). Nature of the experiment: ROCK-II biochemical counter-screen. The settings on record: read-out: ROCK-II IC50. A general note: The purpose of a counterscreen is to sort out artefacts and off-target activity.
Experiment [2] relates to cofilin phosphorylation in A7r5 cells. Nature of the experiment: In-cell Western assay of cofilin phosphorylation in A7r5 cells. Format: cell-based. Conditions: A7R5, A7r5 cells; read-out: Cofilin Phosphorylation In A7r5 Cells (IC50). Here is the method:
A7r5 (15,000 cells/well) were plated in a clear-bottomed Packard View black 96-well plate in 100 μl of 10% FBS DMEM:F12 medium and were allowed to attach overnight. The next day, the cells were serum starved in 1% FBS DMEM medium for 2 hr and then treated with the compounds for 1 hr. […] Next day, they were washed twice with PBS-0.1% Tween 20 (PBST) washing solution for 5 min each at room temperature on the orbital shaker, followed by one wash with Licor Blocking Buffer containing 0.05% Tween-20 for 5 min on the shaker at RT. The cells were then incubated with secondary antibody goat anti-rabbit IR800 (1:500 dilution) for 1 hr at RT in the dark (covered the plate with foil) in Licor blocking buffer-containing Tween-20. Following this, cells were washed twice with PBST for 5 min each at room temperature and then once with Licor blocking buffer-containing 0.05% Tween-20. The wells were then incubated with ToPro 3 stain (nucleic acid staining), diluted 1:4000 in Licor blocking buffer or Licor blocking buffer with 0.05% Tween-20 for 30 min at room temperature in the dark. Finally the plates were washed twice with PBS and analyzed using the Odyssey LICOR Infrared Scanner.

The test system of experiment [3] is PC-3 cells. Nature of the experiment: In vitro invasion assay in PC-3 cells. Type of experiment: cell-based. The settings on record: Homo sapiens, 48 hours, compared to the control. Here is the method: Transwell chambers coated with GFR Matrigel (BD Biosciences) were used for measurement of cell invasion. The matrigel was solidified at 37° C. in a humidified incubator the day before the assay. PC3 cells (1×10^3 cells per well) were grown in serum-free RPMI1640 media in the upper side of the insert. The lower well was filled with RPMI 1640 supplemented with 10% FBS with a Limk inhibitor (1 μM). PC3 cells were incubated at 37° C. in a humidified atmosphere containing 5% CO2 for 48 h. Then transwell membrane was rinsed three times with PBS, and the cells were fixed in 2.5% EM grade glutaraldehyde for 15 min at room temperature (RT) with no shaking. After removing glutaraldehyde by aspirating, the cells were permeabilized with 0.5% Triton X-100 in PBS for 3 min at RT, and they were rinsed three times with PBS. Then, the cells were stained by Gill's hematoxylin No. 1 for 15 min at RT, and they were washed by distilled water for three times. To remove any residual stain, the cells were washed by acid alcohol for 3 minutes and then rinsed by distilled water twice. The cells were exposed with 0.04% NH4OH until a blue color is observed on the membrane and then rinsed by distilled water twice. The membranes were dried overnight, and the stained cells were visualized under Leica DMI3000B microscope.

A further experiment relates to HIV-1(VSVG). Format: cell-based.
The next experiment deals with EBOV (Zaire ebolavirus). Type of experiment: cell-based. Conditions: HFF-1 cells.
A further experiment concerns the target Limk1 (Homo sapiens, UniProt P53667). Nature of the experiment: Kinase profiling at 1 μM (Reaction Biology). Type of experiment: biochemical. Set-up: His; purchased Reaction Biology Corporation; host or cells: insect cells. Conditions: ATP 10 μM. Here is the method:
Profiling was carried out at Reaction Biology Corporation following a protocol described at its website: http://www.reactionbiology.com/webapps/site/. The % data were the average from two determinations. ATP concentration used: 10 μM; Staurosporine was used as the positive control.
Biochemical assays for all Limk inhibitors and kinase profiling were carried out in Reaction Biology Corporation and followed the protocols described on its website. […] Compounds were tested at 1 μM with duplicate experiments in profiling assays. […] Reactions were carried out at 10 μM ATP, 1 μM substrate cofilin, and 50 nM Limk1 (final concentrations).

Chain of Limk1 (P53667 285-638): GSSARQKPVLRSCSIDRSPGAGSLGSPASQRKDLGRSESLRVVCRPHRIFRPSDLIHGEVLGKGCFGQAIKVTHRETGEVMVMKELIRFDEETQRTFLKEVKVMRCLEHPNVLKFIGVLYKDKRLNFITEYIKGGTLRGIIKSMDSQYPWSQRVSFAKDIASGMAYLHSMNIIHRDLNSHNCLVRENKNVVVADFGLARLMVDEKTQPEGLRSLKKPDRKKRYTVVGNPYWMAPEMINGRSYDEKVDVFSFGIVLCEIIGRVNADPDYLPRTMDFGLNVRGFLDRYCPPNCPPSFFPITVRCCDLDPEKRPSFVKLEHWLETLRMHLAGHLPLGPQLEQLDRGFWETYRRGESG
Chain of ROCK-II (O75116 whole entry, species assumed): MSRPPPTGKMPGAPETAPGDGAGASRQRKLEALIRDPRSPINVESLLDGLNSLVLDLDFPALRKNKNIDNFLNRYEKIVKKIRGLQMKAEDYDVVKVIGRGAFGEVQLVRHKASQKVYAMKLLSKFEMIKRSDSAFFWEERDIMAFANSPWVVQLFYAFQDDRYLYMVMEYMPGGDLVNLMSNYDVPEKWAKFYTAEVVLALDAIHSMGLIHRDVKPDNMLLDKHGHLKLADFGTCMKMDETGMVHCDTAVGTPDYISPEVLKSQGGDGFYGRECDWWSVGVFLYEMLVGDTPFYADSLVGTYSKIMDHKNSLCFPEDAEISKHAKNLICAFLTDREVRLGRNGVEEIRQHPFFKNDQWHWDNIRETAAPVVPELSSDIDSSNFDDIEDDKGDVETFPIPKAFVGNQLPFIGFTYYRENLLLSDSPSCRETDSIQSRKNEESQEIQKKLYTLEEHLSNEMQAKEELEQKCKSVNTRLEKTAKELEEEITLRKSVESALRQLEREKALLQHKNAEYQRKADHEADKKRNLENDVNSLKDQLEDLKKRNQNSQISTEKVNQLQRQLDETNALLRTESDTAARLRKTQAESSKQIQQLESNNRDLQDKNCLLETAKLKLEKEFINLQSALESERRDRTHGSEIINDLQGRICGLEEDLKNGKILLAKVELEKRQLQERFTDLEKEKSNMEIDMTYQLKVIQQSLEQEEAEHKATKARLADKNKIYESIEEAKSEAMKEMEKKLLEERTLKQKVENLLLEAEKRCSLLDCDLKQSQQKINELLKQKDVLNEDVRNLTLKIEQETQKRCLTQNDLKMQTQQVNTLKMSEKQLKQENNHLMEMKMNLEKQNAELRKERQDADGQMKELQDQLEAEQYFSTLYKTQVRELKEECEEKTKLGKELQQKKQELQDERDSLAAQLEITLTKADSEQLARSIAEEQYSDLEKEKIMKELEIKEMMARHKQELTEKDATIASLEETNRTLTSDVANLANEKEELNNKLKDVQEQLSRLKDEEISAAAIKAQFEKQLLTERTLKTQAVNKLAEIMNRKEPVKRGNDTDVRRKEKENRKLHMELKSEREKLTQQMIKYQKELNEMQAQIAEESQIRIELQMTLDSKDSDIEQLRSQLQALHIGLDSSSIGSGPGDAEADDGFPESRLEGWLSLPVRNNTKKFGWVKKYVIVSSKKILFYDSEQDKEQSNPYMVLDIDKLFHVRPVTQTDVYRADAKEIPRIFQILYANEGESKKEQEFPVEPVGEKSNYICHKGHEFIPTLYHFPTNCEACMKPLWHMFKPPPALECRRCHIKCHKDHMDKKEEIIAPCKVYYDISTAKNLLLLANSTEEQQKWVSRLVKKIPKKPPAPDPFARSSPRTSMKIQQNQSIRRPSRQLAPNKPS

Take `Cc1c[nH]c2ncnc(-c3ccc(NC(=O)N(CCO)c4ccccc4)cc3)c12` [Compound 18b, 1-(2-Hydroxyethyl)-3-(4-(5-methyl-7H-pyrrolo[2,3-d]pyrimidin-4-yl)phenyl)-1-phenylurea]: the inhibition at 0.1 µM with PC-3 cells [1] (0.1 μM) was determined as 16.5%. For the same compound, the inhibition at 1 µM was found to be 74% in the experiment on PC-3 cells [1] (1 μM) and 76% in the experiment on PC-3 cells [3]. Further, the inhibition at 10 µM in the experiment with PC-3 cells [1] (10 μM) came to 77.5%. Moreover, the values for the IC50 (at ROCK-II; in experiment [2]) were 6.57 µM and 0.47 µM, respectively.
As for `COC(=O)c1ccc2[nH]c(C3CCN(c4ncnc5[nH]cc(Cl)c45)CC3)nc2c1` [Compound R10015, Methyl 2-(1-(5-chloro-7H-pyrrolo[2,3-d]pyrimidin-4-yl)piperidin-4-yl)-1Hbenzo[d]imidazole-5-carboxylate], the “inhibition of VSVG pseudotyped HIV” value in the experiment with HIV-1(VSVG) is given as “did not inhibit”. Also, the EBOV infection result with EBOV (Zaire ebolavirus) is listed as “inhibited”. The same compound gave an activity at 1 µM on Limk1 of 6.4%.
